Results reported in patent publication US20080103199A1, “TREATMENT OF PERVASIVE DEVELOPMENTAL DISORDERS” (priority 2006, published 2008).
Like-named read-outs stand apart in the source and are kept apart here.

Assays:
submissive rats [1] = conditions: treatment of the submissive subject, 3 weeks; literature (Malatynska 2002); cited from earlier work
submissive rats [2] = assay: Reduction of Submissive Behavior Model (RSBM) of depression, dominant-submissive rat food competition test; format: in vivo, Sprague-Dawley rats; conditions: treatment of submissive rats; unpublished observation
Source text: In this study, the effects of COMPOUND #7 on dominant or submissive behavior in pairs of rats competing for food are examined. It has been shown that anti-manic drugs, including anticonvulsants, decrease dominance and antidepressant drugs reduce submissiveness. This model uses dominant behavior as a model of mania and submissive behavior as a model of depression. The dominance and submissiveness is defined in a competition test and measured as the relative success of two food-restricted rats to gain access to a feeder. Rats are randomly paired and placed in an apparatus allowing them to compete for a food reward. The dominant-submissive relationship develops over a 2-week period. The submissive or dominant animals in pairs selected after 2 weeks of training were treated orally […] (b.i.d.) with COMPOUND #7 at 3 or 30 mg/kg for 5 weeks. The partner of the drug-treated animal was treated with vehicle.
The objective of this study was to determine if COMPOUND #7 is active in the Reduction of Submissive Behavior Model (RSBM) of depression and the Reduction of Dominant Behavior Model (RDBM) of mania. Measurements were made at two doses (3 and 30 mg/kg) after oral twice a day (b.i.d.) administration. The effect of the drug in the RSBM was compared to the effect of fluoxetine (10 mg/kg) and vehicle (0.5% methylcellulose). The effect of the drug in the RDBM was compared with the effect of lithium (100 mg/kg) and vehicle (0.5% methylcellulose). The endpoints measured were the development of a significant reduction of submissive or dominant behavior and its time of onset.
The DSR developed by two rats competing for food uses the apparatus in FIG. 1.
In the experiments described in this report Sprague-Dawley rats weighing 160 to 180 g were used. Testing for the development of a DSR between paired rats begins with the random assignment of rats into pairs. […]
The test involves placing each member of a pair in opposite chambers of the testing apparatus. […] The test is conducted once a day over a 5-minute period and the time spent on the feeder by each animal is recorded. […]

dominant rats = conditions: administered to dominant rats; literature (Malatynska 2002); cited from earlier work

CN(C)CCCN1c2ccccc2CCc2ccccc21 [imipramine]
Effect on submissive behavior (submissive rats [1]): reduced submissive behavior

CC(N)Cc1ccccc1 (stereo not drawn) [amphetamine, reference compound]
Effect on submissive behavior (submissive rats [2]): ineffective

CCCC(CCC)C(=O)[O-].[Na+] [sodium valproate]
Effect on competitive behavior of dominant rats (dominant rats): significantly reduced competitive behavior
